These results are taken from patent US9133245B2, “Cyclic lactadherin peptide mimetics and their uses” (TRUSTEES OF BOSTON COLLEGE, priority 2011, dated 2015).

Assay [1] relates to phosphatidylserine (PS)-containing liposomes (PC/PS vesicles). Description: Liposome binding assay (Trp-to-dansyl FRET) with large unilamellar vesicles. The following applies: for binding to lipid vesicles of either composition / binding to PC/PS liposomes (sensitized dansyl emission at 520 nm): FRET; for binding to lipid vesicles of either composition: vesicles with and without PS; for Liposome binding assay: dansyl FRET assay; for binding to PC/PS liposomes (sensitized dansyl emission at 520 nm): PC/PS vesicles; for PS-selective binding in the presence of cholesterol: cholesterol-containing liposomes with PS vs without PS. Also noted: key to Liposome binding assay: “Y” means PS-selective (or apoptotic cell-specific) binding is observed; N means no or insignificant membrane binding is observed; “Nonselective” refers to membrane binding independent on PS. The method, then:
The binding of cLac to lipid membrane can be analyzed by any method known it the art. For example, by the fluorescence assay (Trp-to-dansyl FRET) described herein. Basically, large unilamellar vesicles (100 nm in diameter) were prepared with phosphatidylcholine (PC) and varied percentages of PS. All vesicles contained 5% dansyl-labeled PE to serve as a reporting group. The peptide-vesicle binding was monitored by the fluorescence resonance energy transfer (FRET) from Trp to the dansyl group. Emission of sensitized dansyl is monitored at 520 nm and Trp emission is monitored near 350 nm. Membrane binding of cLac to the PC/PS vesicles produces a sensitized dansyl emission at 520 nm with a concurrent decrease of Trp emission near 350 nm.
The peptide-membrane binding was evaluated via a fluorescence assay: large unilamellar vesicles (100 nm in diameter) were prepared with PC and varied percentages of PS. All vesicles contained 5% dansyl-labeled PE to serve as a reporting group. The peptide-vesicle binding was monitored by the fluorescence resonance energy transfer (FRET) from Trp to the dansyl group.

The subject of assay [2] is apoptotic HeLa and Jukat cells (STS or CPT treated). Description: Cell imaging of apoptotic cells by epifluorescence microscopy. Also noted: key to Cell imaging: “Y” means PS-selective (or apoptotic cell-specific) binding is observed; N means no or insignificant membrane binding is observed; “Nonselective” refers to membrane binding independent on PS. Particulars: for Cell imaging: standard epifluorescence microscopy. It counts as cell-based, human. On the procedure: The fluorescent derivative was tested for its potential to stain apoptotic cells. Cultured HeLa and Jukat cells were treated with the potent apoptogen staurosporine (STS) or camptothecin (CPT) respectively to trigger apoptosis. The experimental conditions were optimized with the FITC-labeled annexin V and the membrane impermeable DNA intercalator propidium iodine (PI). The treatment with 0.1 μM STS or CPT for 4 hours gave a large population of early apoptotic cells (data not shown), which were stained with annexin, but not PI. This indicates increased presence of PS exposure on the outer membrane leaflet of the cells experiencing early apoptosis. […] As negative controls, both fluorescein alone as well as the FITC-labeled linear precursor of cLac were used to label the apoptotic cells and tested for fluorescence staining. […] This observation is consistent with the previous reports that annexin V preferentially binds to cells at the early stages of apoptosis. Since these early apoptotic cells hold their membrane integrity (PI negative), it is believed cLac2-Fl stained the cells by binding to their outer surfaces, presumably to PS.

The test system of a further assay is PS. The following applies: without cofactors; cited from earlier work.

Non-standard residues stand in square brackets, D forms with d. No end group written: not given here. Bip = N[C@@H](Cc1ccc(-c2ccccc2)cc1)C(=O)O

Take “DWBipGHIQGGRGGG (DW[Bip]GHIQGGRGGG; not fully specified) [cLac-linear, ID; NO; 43]”: in assay [1], the “binding to lipid vesicles of either composition” value is on record as “binds to neither type of vesicle” and the Liposome binding assay result is “N”. Besides, the Cell imaging entry in assay [2] is on record as “N”.

With “WBipGHIQGGRGGGGD (cyclo(W[Bip]GHIQGGRGGGGD); SMILES CC[C@H](C)[C@@H]1NC(=O)[C@H](Cc2c[nH]cn2)NC(=O)CNC(=O)[C@H](Cc2ccc(-c3ccccc3)cc2)NC(=O)[C@H](Cc2c[nH]c3ccccc23)NC(=O)[C@H](CC(=O)O)NC(=O)CNC(=O)CNC(=O)CNC(=O)CNC(=O)[C@H](CCCNC(=N)N)NC(=O)CNC(=O)CNC(=O)[C@H](CCC(N)=O)NC1=O) [cLac-24G]”, the Liposome binding assay entry in assay [1] is on record as “Y”.

In the case of “WBipGHIQGGRGGGGGD (cyclo(W[Bip]GHIQGGRGGGGGD); SMILES CC[C@H](C)[C@@H]1NC(=O)[C@H](Cc2c[nH]cn2)NC(=O)CNC(=O)[C@H](Cc2ccc(-c3ccccc3)cc2)NC(=O)[C@H](Cc2c[nH]c3ccccc23)NC(=O)[C@H](CC(=O)O)NC(=O)CNC(=O)CNC(=O)CNC(=O)CNC(=O)CNC(=O)[C@H](CCCNC(=N)N)NC(=O)CNC(=O)CNC(=O)[C@H](CCC(N)=O)NC1=O) [cLac-25G]”, the Liposome binding assay entry in assay [1] is listed as “Y”.

Take “WBipGHIQGRGGGD (cyclo(W[Bip]GHIQGRGGGD); SMILES CC[C@H](C)[C@@H]1NC(=O)[C@H](Cc2c[nH]cn2)NC(=O)CNC(=O)[C@H](Cc2ccc(-c3ccccc3)cc2)NC(=O)[C@H](Cc2c[nH]c3ccccc23)NC(=O)[C@H](CC(=O)O)NC(=O)CNC(=O)CNC(=O)CNC(=O)[C@H](CCCNC(=N)N)NC(=O)CNC(=O)[C@H](CCC(N)=O)NC1=O) [cLac-13G]”: in assay [1], the Liposome binding assay result is reported as “Y”.

Turning to WBipGHIQGppGRGGAD [cLac-PPG-2], in assay [1], the “binding to PC/PS liposomes (sensitized dansyl emission at 520 nm)” value was “selective binding”, the “PS-selective binding in the presence of cholesterol” value is “selective binding” and the Liposome binding assay result is on record as “Y”. Moreover, in assay [2], the Cell imaging entry is listed as “Y”.

Take WBipGHppGQGGRGGGD [cLac-PPG-0]: in assay [1], the “binding to PC/PS liposomes (sensitized dansyl emission at 520 nm)” value is “selective binding”, the “PS-selective binding in the presence of cholesterol” value is on record as “selective binding” and the Liposome binding assay entry is listed as “Y”. The Cell imaging result in assay [2] is listed as “Y”.

With “cLac-1: first cyclic lactadherin mimetic with Trp and Phe as membrane insertion motif, SEQ. ID. NO. 38 (WFGHIQGGRGGGD; cyclic)”, in assay [1], the “binding to lipid vesicles of either composition” value is “no binding” and the Liposome binding assay entry is listed as “N”.

Regarding “cLac-22G: cLac variant with di-Gly in linker II, SEQ. ID. NO. 42 (WFGHIQGGRGGD; cyclic)”, in assay [1] (Trp-to-dansyl FRET, Gly number of linker II varied 2 to 5, or linker I varied), the “dansyl emission / membrane binding compared among linker-length variants” value is listed as “lowest”. The Liposome binding assay entry in assay [1] is listed as “N”.

In the case of “cLac-A3: alanine for glycine linker variant G10A, SEQ. ID. NO. 40 (WFGHIQGGRAGGD; cyclic)”, the Liposome binding assay entry in assay [1] is “N”.

Take “cLac-A4: alanine for glycine linker variant G11A, SEQ. ID. NO. 41 (WFGHIQGGRGAGD; cyclic)”: the Liposome binding assay entry in assay [1] is on record as “N”.

B1: Lactadherin: 47 kDa glycoprotein, natural PS-binding protein (protein, UniProt Q08431 24-387, looked up)
Lactadherin: LDICSKNPCHNGGLCEEISQEVRGDVFPSYTCTCLKGYAGNHCETKCVEPLGLENGNIANSQIAASSVRVTFLGLQHWVPELARLNRAGMVNAWTPSSNDDNPWIQVNLLRRMWVTGVVTQGASRLASHEYLKAFKVAYSLNGHEFDFIHDVNKKHKEFVGNWNKNAVHVNLFETPVEAQYVRLYPTSCHTACTLRFELLGCELNGCANPLGLKNNSIPDKQITASSSYKTWGLHLFSWNPSYARLDKQGNFNAWVAGSYGNDQWLQVDLGSSKEVTGIITQGARNFGSVQFVASYKVAYSNDSANWTEYQDPRTGSSKIFPGNWDNHSHKKNLFETPILARYVRILPVAWHNRIALRLELLGC
Consider B1, for which the “affinity of binding to PS” value in the assay on PS is given as “nanomolar”.

B2: FITC-labeled annexin V: naturally occurring 36 kDa PS-binding protein, FITC-labeled (protein, UniProt P08758 2-320, looked up)
Annexin A5: AQVLRGTVTDFPGFDERADAETLRKAMKGLGTDEESILTLLTSRSNAQRQEISAAFKTLFGRDLLDDLKSELTGKFEKLIVALMKPSRLYDAYELKHALKGAGTNEKVLTEIIASRTPEELRAIKQVYEEEYGSSLEDDVVGDTSGYYQRMLVVLLQANRDPDAGIDEAQVEQDAQALFQAGELKWGTDEEKFITIFGTRSVSHLRKVFDKYMTISGFQIEETIDRETSGNLEQLLLAVVKSIRSIPAYLAETLYYAMKGAGTDDHTLIRVMVSRSEIDLFNIRKEFRKNFATSLYSMIKGDTSGDYKKALLLLCGEDD
modifications: FITC label
Consider B2, for which the “staining of apoptotic cells” value in assay [2] (0.1 μM STS or CPT for 4 hours, early apoptotic cells) is “stained”.
